In patent US20020026052A1, “3-cyanoquinolines, 3-cyano-1,6-naphthyridines, and 3-cyano-1,7-naphthyridines as protein kinase inhibitors” (American Home Products Corporation, priority 2000, published 2002) one finds melting point data, which are given here for 21 compounds.

SMILES strings stand for the structures.

`N#Cc1cnc2cc(-c3ccc(CN4CCOCC4)cn3)ccc2c1Nc1ccc(Oc2ccccc2)cc1` [Example 56, 7-[5-(4-Morpholinylmethyl)-2-pyridinyl]-4-(4-phenoxyanilino)-3-quinolinecarbonitrile] returned a melting point of 219 to 221 °C.

For `N#Cc1cnc2ccc(-n3cccc3C=O)cc2c1Nc1cccc(Br)c1` [Example 60, 4-(3-Bromoanilino)-6-(2-formyl-1H-pyrrol-1-yl)-3-quinolinecarbonitrile], the melting point was in the range of 94 to 95 °C.

As for `Cn1ccnc1Sc1ccc(Nc2c(C#N)cnc3cc(-c4ccc(C=O)cc4)ccc23)cc1Cl` [Example 62, 4-{3-chloro-4-[(1-methyl-1H-imidazol-2-yl)sulfanyl]anilino}-7-(4-formylphenyl)-3-quinolinecarbonitrile], the melting point was > 240 °C (dec.).

The compound `Cn1ccnc1Sc1ccc(Nc2c(C#N)cnc3cc(-c4ccc(CN5CCOCC5)cc4)ccc23)cc1Cl` [Example 63, 4-{3-chloro-4-[(1-methyl-1H-imidazol-2-yl)sulfanyl]anilino}-7-[4-(4-morpholinylmethyl)phenyl]-3-quinolinecarbonitrile] yielded a melting point of 148 to 150 °C.

As for `Cc1cc(Nc2c(C#N)cnc3cc(-c4csc(C5OCCO5)c4)ccc23)ccc1OCc1ccccn1` [Example 94, 7-[5-(1,3-Dioxolan-2-yl)-3-thienyl]-4-[3-methyl-4-(2-pyridinylmethoxy)anilino]-3-quinolinecarbonitrile], the melting point is 194 to 196 °C.

`Cc1cc(Nc2c(C#N)cnc3cc(-c4csc(CN5CCOCC5)c4)ccc23)ccc1OCc1ccccn1` [Example 95, 4-[3-Methyl-4-(2-pyridinylmethoxy)anilino]-7-[5-(4-morpholinylmethyl)-3-thienyl]-3-quinolinecarbonitrile] yielded a melting point of 217 to 219 °C.

Consider `COc1cc(Nc2c(C#N)cnc3cc(-c4cnc(C=O)n4C)ccc23)c(Cl)cc1Cl` [Example 96, 4-(2,4-Dichloro-5-methoxyanilino)-7-(2-formyl-1-methyl-1H-imidazol-5-yl)-3-quinolinecarbonitrile], for which the melting point was 186 to 189 °C.

Regarding `CC(C)N1CCN(Cc2ccc(-c3ccc4c(Nc5ccc(Sc6nccn6C)c(Cl)c5)c(C#N)cnc4c3)cc2)CC1` [Example 98, 4-({3-Chloro-4-[(1-methyl-1H-imidazol-2-yl)sulfanyl]phenyl}amino)-7-{4-[(4-isopropyl-1-piperazinyl)methyl]phenyl}-3-quinolinecarbonitrile], the melting point lay in the range of 193 to 195 °C.

Compound `COc1cc(Nc2c(C#N)cnc3cc(-c4ccc(Cn5ccnn5)cc4)ccc23)c(Cl)cc1Cl` [Example 103, 4-[(2,4-Dichloro-5-methoxyphenyl)amino]-7-[4-(1H-1,2,3-triazol-1-ylmethyl)phenyl]-3-quinolinecarbonitrile] came in with a melting point of 239 to 240 °C.

`CN(CCO)Cc1ccc(-c2ccc3c(Nc4ccc(Sc5nccn5C)c(Cl)c4)c(C#N)cnc3c2)nc1` [Example 106, 4-({3-Chloro-4-[(1-methyl-IH-irnidazol-2-yl)sulfanyl]phenyl}amino)-7-(5-{[(2-hydroxyethyl) (methyl)amino]methyl}-2-pyridinyl)-3-quinolinecarbonitrile] returned a melting point of 197 to 199 °C.

Turning to `COC(=O)C1CCN(Cc2ccc(-c3ccc4c(Nc5ccc(Sc6nccn6C)c(Cl)c5)c(C#N)cnc4c3)nc2)CC1` [Example 107, Methyl 1-{[6-(4-{3-chloro-4-[(1-methyl-1H-imidazol-2-yl)sulfanyl]anilino}-3-cyano-7-quinolinyl)-3-pyridinyl]methyl}-4-piperidinecarboxylate], the melting point is 135 to 137 °C.

Regarding `CCN1CCN(c2ccc(-c3ccc4c(Nc5ccc(Sc6nccn6C)c(Cl)c5)c(C#N)cnc4c3)nc2)CC1` [Example 108, 4-({3-Chloro-4-[(1-methyl-1H-imidazol-2-yl)sulfanyl]phenyl}amino)-7-[5-(4-ethyl-1-piperazinyl)-2-pyridinyl]-3-quinolinecarbonitrile], the melting point lay within 246 to 248 °C.

In turn, `Cn1ccnc1Sc1ccc(Nc2c(C#N)cnc3cc(-c4ccc(CN5CCOCC5)nc4)ccc23)cc1Cl` [Example 109, 4-({3-chloro-4-[(1-methylimidazol-2-yl)sulfanyl]phenyl}amino)-7-[6-(4-morpholinylmethyl)-3-pyridinyl]-3-quinolinecarbonitrile] came in with a melting point of 233 to 235 °C.

In turn, `COc1cc2c(Nc3ccc(Sc4nccn4C)c(Cl)c3)c(C#N)cnc2cc1-c1csc(CN2CCOCC2)c1` [Example 125, 4-{3-chloro-4-[(1-methylimidazol-2-yl)sulfanyl]anilino}-6-methoxy-7-[5-(4-morpholinylmethyl)-3-thienyl]-3-quinolinecarbonitrile] yielded a melting point of 238 to 240 °C.

In the case of `COc1cc2c(Nc3ccc(Sc4nccn4C)c(Cl)c3)c(C#N)cnc2cc1-c1csc(CN2CCN(C)CC2)c1` [Example 126, 4-{3-chloro-4-[(1-methylimidazol-2-yl)sulfanyl]anilino}-6-methoxy-7-{5-[(4-methyl-1-piperazinyl)methyl]-3-thienyl}-3-quinolinecarbonitrile], the melting point is 162 to 164 °C.

`COc1ccc(-c2cc3ncc(C#N)c(Nc4ccc(Sc5nccn5C)c(Cl)c4)c3cc2OC)cc1` [Example 127, 4-{3-Chloro-4-[(I -methyl-iH-imidazol-2-yl)sulfanyl]anilino}-6-methoxy-7-(4-methoxyphenyl)-3-quinolinecarbonitrile] returned a melting point of 227 to 229 °C.

Take `Cn1ccnc1Sc1ccc(Nc2c(C#N)cnc3cc(-c4ccc(C(=O)N5CCOCC5)cc4)ccc23)cc1Cl` [Example 129, 4-({3-Chloro-4-[(i-methyl-IH-imidazol-2-yl)sulfanyl]phenyl}amino)-7-[4-(4-morpholinylcarbonyl)phenyl]-3-quinolinecarbonitrile]: the melting point is 98 to 101 °C.

In turn, `COCCOc1ccc(-c2ccc3c(Nc4cc(OC)c(Cl)cc4Cl)c(C#N)cnc3c2)cc1` [Example 130, 4-(2,4-Dichloro-5-methoxyanilino)-7-{4-[(2-methoxy)ethoxy]phenyl}-3-quinolinecarbonitrile] came in with a melting point of 205 to 207 °C.

As to `Cn1ccnc1Sc1ccc(Nc2c(C#N)cnc3cc(-c4ccc(CN5CCC(O)CC5)cc4)ccc23)cc1Cl` [Example 134, 4-{3-Chloro-4-[(1-methyl-LH-imidazol-2-yl)sulfanyl]anilino}-7-{4-[(4-hydroxy-1-piperidinyl)methyl]phenyl}-3-quinolinecarbonitrile], the melting point was 230 to 232 °C.

Take `CN1CCN(Cc2ccc(-c3ccc4c(Nc5ccc(Sc6nccn6C)c(Cl)c5)c(C#N)cnc4c3)cc2)CC1` [Example 135, 4-{3-chloro-4-[(1-methylimidazol-2-yl)sulfanyl]anilino}-7-{4-[(4-methyl-1-piperazinyl)methyl]phenyl}-3-quinolinecarbonitrile]: the melting point lay within 202 to 203 °C.

With `Cn1ccnc1Sc1ccc(Nc2c(C#N)cnc3cc(-c4ccc(CN5CCN(C(=O)OC(C)(C)C)CC5)cc4)ccc23)cc1Cl` [Example 137, tert-butyl 4-{4-[4-({3-chloro-4-[(1-methylimidazol-2-yl)sulfanyl]phenyl}amino)-3-cyano-7-quinolinyl]benzyl}-1-piperazinecarboxylate], the melting point lay in the range of 184 to 186 °C.
